# In PubChem BioAssay (NCI):
#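 Tested at 5 concentrations; 48 h exposure; 96-well plates; endpoints linearly interpolated, else capped at highest concentration. At the TGI there is no net growth.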
# Experiments:
# Assay in all cases: NCI tumour cell line growth inhibition, 48 h
# 786-0 renal = test system: 786-0 renal
# A498 renal = test system: A498 renal
# A549 NSCLC = test system: A549 NSCLC
# ACHN renal = test system: ACHN renal
# BT-549 breast = test system: BT-549 breast
# CAKI-1 renal = test system: CAKI-1 renal
# CCRF-CEM leukemia = test system: CCRF-CEM leukemia
# COLO 205 colon = test system: COLO 205 colon
# DU-145 prostate = test system: DU-145 prostate
# EKVX NSCLC = test system: EKVX NSCLC
# HCC-2998 colon = test system: HCC-2998 colon
# HCT-116 colon = test system: HCT-116 colon
# HCT-15 colon = test system: HCT-15 colon
# HL-60(TB) leukemia = test system: HL-60(TB) leukemia
# HOP-62 NSCLC = test system: HOP-62 NSCLC
# HS 578T breast = test system: HS 578T breast
# HT29 colon = test system: HT29 colon
# IGROV1 ovarian = test system: IGROV1 ovarian
# K-562 leukemia = test system: K-562 leukemia
# KM12 colon = test system: KM12 colon
# LOX IMVI melanoma = test system: LOX IMVI melanoma
# M14 melanoma = test system: M14 melanoma
# MALME-3M melanoma = test system: MALME-3M melanoma
# MCF7 breast = test system: MCF7 breast
# MDA-MB-231 breast = test system: MDA-MB-231 breast
# MDA-MB-435 = test system: MDA-MB-435
# MDA-N = test system: MDA-N
# MOLT-4 leukemia = test system: MOLT-4 leukemia
# NCI-H226 lung = test system: NCI-H226 lung
# NCI-H23 lung = test system: NCI-H23 lung
# NCI-H460 lung = test system: NCI-H460 lung
# NCI-H522 lung = test system: NCI-H522 lung
# NCI/ADR-RES ovarian = test system: NCI/ADR-RES ovarian
# OVCAR-3 ovarian = test system: OVCAR-3 ovarian
# OVCAR-4 ovarian = test system: OVCAR-4 ovarian
# OVCAR-5 ovarian = test system: OVCAR-5 ovarian
# OVCAR-8 ovarian = test system: OVCAR-8 ovarian
# PC-3 prostate = test system: PC-3 prostate
# SF-268 CNS = test system: SF-268 CNS
# SF-295 CNS = test system: SF-295 CNS
# SF-539 CNS = test system: SF-539 CNS
# SK-MEL-2 melanoma = test system: SK-MEL-2 melanoma
# SK-MEL-5 melanoma = test system: SK-MEL-5 melanoma
# SK-OV-3 ovarian = test system: SK-OV-3 ovarian
# SN12C renal = test system: SN12C renal
# SNB-19 CNS = test system: SNB-19 CNS
# SNB-75 CNS = test system: SNB-75 CNS
# SR leukemia = test system: SR leukemia
# SW-620 colon = test system: SW-620 colon
# T-47D breast = test system: T-47D breast
# TK-10 renal = test system: TK-10 renal
# U251 CNS = test system: U251 CNS
# UACC-257 melanoma = test system: UACC-257 melanoma
# UACC-62 melanoma = test system: UACC-62 melanoma
# UO-31 renal = test system: UO-31 renal
# HOP-92 NSCLC = test system: HOP-92 NSCLC
# RPMI-8226 leukemia = test system: RPMI-8226 leukemia
# RXF 393 renal = test system: RXF 393 renal
# SK-MEL-28 melanoma = test system: SK-MEL-28 melanoma
structure (smiles),measurement,setting,value
Nc1c(C(=O)O)nnc2cc(Cl)ccc12,TGI,786-0 renal,> 100 µM
same,TGI,A498 renal,> 100 µM
same,TGI,A549 NSCLC,> 100 µM
same,TGI,ACHN renal,> 100 µM
same,TGI,BT-549 breast,> 100 µM
same,TGI,CAKI-1 renal,> 100 µM
same,TGI,CCRF-CEM leukemia,> 100 µM
same,TGI,COLO 205 colon,> 100 µM
same,TGI,DU-145 prostate,> 100 µM
same,TGI,EKVX NSCLC,> 100 µM
same,TGI,HCC-2998 colon,> 100 µM
same,TGI,HCT-116 colon,> 100 µM
same,TGI,HCT-15 colon,> 100 µM
same,TGI,HL-60(TB) leukemia,> 100 µM
same,TGI,HOP-62 NSCLC,> 100 µM
same,TGI,HS 578T breast,> 100 µM
same,TGI,HT29 colon,> 100 µM
same,TGI,IGROV1 ovarian,> 100 µM
same,TGI,K-562 leukemia,> 100 µM
same,TGI,KM12 colon,> 100 µM
same,TGI,LOX IMVI melanoma,> 100 µM
same,TGI,M14 melanoma,> 100 µM
same,TGI,MALME-3M melanoma,> 100 µM
same,TGI,MCF7 breast,> 100 µM
same,TGI,MDA-MB-231 breast,> 100 µM
same,TGI,MDA-MB-435,> 100 µM
same,TGI,MDA-N,> 100 µM
same,TGI,MOLT-4 leukemia,> 100 µM
same,TGI,NCI-H226 lung,> 100 µM
same,TGI,NCI-H23 lung,> 100 µM
same,TGI,NCI-H460 lung,> 100 µM
same,TGI,NCI-H522 lung,> 100 µM
same,TGI,NCI/ADR-RES ovarian,> 100 µM
same,TGI,OVCAR-3 ovarian,> 100 µM
same,TGI,OVCAR-4 ovarian,> 100 µM
same,TGI,OVCAR-5 ovarian,> 100 µM
same,TGI,OVCAR-8 ovarian,> 100 µM
same,TGI,PC-3 prostate,> 100 µM
same,TGI,SF-268 CNS,> 100 µM
same,TGI,SF-295 CNS,> 100 µM
same,TGI,SF-539 CNS,> 100 µM
same,TGI,SK-MEL-2 melanoma,> 100 µM
same,TGI,SK-MEL-5 melanoma,> 100 µM
same,TGI,SK-OV-3 ovarian,> 100 µM
same,TGI,SN12C renal,> 100 µM
same,TGI,SNB-19 CNS,> 100 µM
same,TGI,SNB-75 CNS,> 100 µM
same,TGI,SR leukemia,> 100 µM
same,TGI,SW-620 colon,> 100 µM
same,TGI,T-47D breast,> 100 µM
same,TGI,TK-10 renal,> 100 µM
same,TGI,U251 CNS,> 100 µM
same,TGI,UACC-257 melanoma,> 100 µM
same,TGI,UACC-62 melanoma,> 100 µM
same,TGI,UO-31 renal,> 100 µM
CSc1c(C)n([O-])c2cc(Cl)c(Cl)cc2[n+]1=O,TGI,786-0 renal,33.2 µM
same,TGI,A498 renal,61.6 µM
same,TGI,A549 NSCLC,> 100 µM
same,TGI,ACHN renal,30.7 µM
same,TGI,BT-549 breast,32.7 µM
same,TGI,CAKI-1 renal,32.5 µM
same,TGI,CCRF-CEM leukemia,4.58 µM
same,TGI,COLO 205 colon,41.7 µM
same,TGI,DU-145 prostate,30.9 µM
same,TGI,EKVX NSCLC,31 µM
same,TGI,HCC-2998 colon,38 µM
same,TGI,HCT-116 colon,32 µM
same,TGI,HCT-15 colon,49.6 µM
same,TGI,HOP-62 NSCLC,> 100 µM
same,TGI,HOP-92 NSCLC,30.3 µM
same,TGI,HS 578T breast,> 68.5 µM
same,TGI,HT29 colon,33.7 µM
same,TGI,IGROV1 ovarian,30.8 µM
same,TGI,K-562 leukemia,11.1 µM
same,TGI,KM12 colon,> 60.7 µM
same,TGI,LOX IMVI melanoma,41.3 µM
same,TGI,M14 melanoma,45.6 µM
same,TGI,MALME-3M melanoma,33 µM
same,TGI,MCF7 breast,45 µM
same,TGI,MDA-MB-231 breast,37.9 µM
same,TGI,MDA-MB-435,36.7 µM
same,TGI,MDA-N,33.9 µM
same,TGI,MOLT-4 leukemia,5.43 µM
same,TGI,NCI-H226 lung,27.1 µM
same,TGI,NCI-H23 lung,31.8 µM
same,TGI,NCI-H460 lung,> 100 µM
same,TGI,NCI-H522 lung,29.3 µM
same,TGI,NCI/ADR-RES ovarian,39.3 µM
same,TGI,OVCAR-3 ovarian,33.1 µM
same,TGI,OVCAR-4 ovarian,30.6 µM
same,TGI,OVCAR-5 ovarian,29.8 µM
same,TGI,OVCAR-8 ovarian,32.3 µM
same,TGI,PC-3 prostate,38.9 µM
same,TGI,RPMI-8226 leukemia,34.9 µM
same,TGI,RXF 393 renal,45.6 µM
same,TGI,SF-268 CNS,36.6 µM
same,TGI,SF-295 CNS,> 100 µM
same,TGI,SF-539 CNS,> 100 µM
same,TGI,SK-MEL-2 melanoma,46 µM
same,TGI,SK-MEL-28 melanoma,39 µM
same,TGI,SK-MEL-5 melanoma,34.3 µM
same,TGI,SK-OV-3 ovarian,> 100 µM
same,TGI,SN12C renal,33.3 µM
same,TGI,SNB-19 CNS,> 100 µM
same,TGI,SNB-75 CNS,> 69.4 µM
same,TGI,SR leukemia,5.69 µM
same,TGI,SW-620 colon,42.9 µM
same,TGI,T-47D breast,50 µM
same,TGI,TK-10 renal,35.6 µM
same,TGI,U251 CNS,46.3 µM
same,TGI,UACC-257 melanoma,34.8 µM
same,TGI,UACC-62 melanoma,28.9 µM
same,TGI,UO-31 renal,30.4 µM
